Data: patent US7452914B2, “Spiro-benzo[c]chromene derivatives useful as modulators of the estrogen receptors” (Janssen Pharmaceutica N.V., priority 2004, dated 2008)
Like-named read-outs stand apart in the source and are kept apart here.

Tests used:
[1] = system: MCF-7 cells; assay: MCF-7 Cell Proliferation Assay (14C-thymidine incorporation); type: cell-based; settings: for IC50: 10 nM 17β-estradiol added, 14C-thymidine, read-out: Antagonist (No.); for EC50: MCF7, agonist mode, increase in 14C-thymidine relative to vehicle control, read-out: Agonist (No.)
Method: This assay was run according to the procedure described by Welshons, et al., (Breast Cancer Res. Treat., 1987, 10(2), 169-75), with minor modification.
Briefly, MCF-7 cells (from Dr. C. Jordan, Northwestern University) were maintained in RPMI 1640 phenol red free medium (Gibco) in 10% FBS (Hyclone), supplemented with bovine insulin and non-essential amino acid (Sigma). The cells were initially treated with 4-hydoxyltamoxifen (10^−8 M) and let stand at 37° C. for 24 hours. Following this incubation with tamoxifen, the cells were treated with compounds at various concentrations.
Compounds to be tested in the agonist mode were added to the culture media at varying concentrations. Compounds to be treated in the antagonist mode were prepared similarly, and 10 nM 17β-estradiol was also added to the culture media. The cells were incubated for 24 hours at 37° C. Following this incubation, 0.1 µCi of ^14C-thymidine (56 mCi/mmol, Amersham) was added to the culture media and the cells were incubated for an additional 24 hours at 37° C. The cells were then washed twice with Hank's buffered salt solution (HBSS) (Gibco) and counted with a scintillation counter. The increase in the ^14C-thymidine in the compound treated cells relative to the vehicle control cells were reported as percent increase in cell proliferation.

[2] = system: Human Endometrial Ishikawa Cells; assay: Alkaline Phosphatase Assay in Human Endometrial Ishikawa Cells; type: cell-based; settings: alkaline phosphatase activity, chemiluminescence; for IC50: antagonist mode, 10 nM 17β-estradiol added, read-out: Antagonist (No.); for EC50: 72 h, agonist mode, 3 days incubation, read-out: Agonist (No.)
Method: This assay was run according to the procedure described by Albert et a., Cancer Res, […], 50(11), 330-6-10, with minor modification.
Ishikawa cells (from ATCC) were maintained in DMEM/F12 (1:1) phenol red free medium (Gibco) supplemented with 10% calf serum (Hyclone). 24 hours prior to testing, the medium was changed to DMEM/F12 (1:1) phenol red free containing 2% calf serum.
Compounds to be tested in the agonist mode were added to the culture media at varying concentrations. Compounds to be treated in the antagonist mode were prepared similarly, and 10 nM 17β-estradiol was also added to the culture media. The cells were then incubated at 37° C. for 3 days. On the fourth day, the media was remove, 1 volume of 1× Dilution Buffer (Clontech) was added to the well followed by addition of 1 volume of Assay Buffer (Clontech). The cells were then incubated at room temperature for 5 minutes. 1 volume of freshly prepared Chemiluminescence Buffer (1 volume of chemiluminescent substrate (CSPD) in 19 volume Chemiluminescent Enhancer with final concentration of CSPD at 1.25 mM; Sigma Chemical Co.) was added. The cells were incubated at room temperature for 10 minutes and then quantified on a luminometer. The increase of chemiluminescence over vehicle control was used to calculate the increase in alkaline phosphatase activity.

[3] = Homo sapiens, MCF7, antagonist mode

| Compound | IC50 ([1]; antagonist mode) | IC50 [2] | EC50 ([1]; Homo sapiens) | IC50 [1, 3] | EC50 ([2]; Homo sapiens) | IC50 ([2]; Homo sapiens) |
| --- | --- | --- | --- | --- | --- | --- |
| 9R*-2″,2″-Dimethyl-propionic Acid-{9-[4′-(2′-piperidinyl-ethoxy)-phenyl]-11,14-spiro[4,5]-5,6,7,8-tetrahydro-9H-benzo[c]chromen-2-yl Ester [R*-15] | 0.769 µM | 0.22 µM | – | – | – | – |
| 9R*-2″,2″-Dimethyl-propionic Acid-{9-[4′-(2′-piperidinyl-ethoxy)-phenyl]-11,15-spiro[5,5]-5,6,7,8-tetrahydro-9H-benzo[c]chromen-2-yl Ester [R*-16] | 0.271 µM | 0.0258 µM | – | – | – | – |
| 9S*-2″,2″-Dimethyl-propionic Acid-{9-[4′-(2′-piperidinyl-ethoxy)-phenyl]-11,14-spiro[4,5]-5,6,7,8-tetrahydro-9H-benzo[c]chromen-2-yl Ester [S*-15] | > 10 µM | > 10 µM | – | – | – | – |
| 9S*-2″,2″-Dimethyl-propionic Acid-{9-[4′-(2′-piperidinyl-ethoxy)-phenyl]-11,15-spiro[5,5]-5,6,7,8-tetrahydro-9H-benzo[c]chromen-2-yl Ester [S*-16] | > 10 µM | > 10 µM | – | – | – | – |
| Oc1ccc2c(c1)O[C@H](c1ccc(OCCN3CCCCC3)cc1)C1=C2CCC2(C1)SCCS2 (stereo in doubt) [R*-11, 9R*-2-(Hydroxy)-{9-[4′-(2′-piperidinyl-ethoxy)-phenyl]-11,14-spiro[4,5]-5,6,7,8-tetrahydro-9H-benzo[c]chromene] | – | – | > 10 µM | 0.672 µM | > 10 µM | 0.0419 µM |
| Oc1ccc2c(c1)O[C@@H](c1ccc(OCCN3CCCCC3)cc1)C1=C2CCC2(C1)SCCS2 (stereo in doubt) [S*-11, 9S*-2-(Hydroxy)-{9-[4′-(2′-piperidinyl-ethoxy)-phenyl]-11,14-spiro[4,5]-5,6,7,8-tetrahydro-9H-benzo[c]chromene] | – | – | > 10 µM | > 10 µM | > 10 µM | 1.02 µM |
| Oc1ccc2c(c1)OC(c1ccc(OCCN3CCCCC3)cc1)C1=C2CCC2(C1)SCCS2 (stereo not drawn) [Compound 11] | – | – | > 10 µM | 1.06 µM | > 10 µM | 0.0296 µM |
| Oc1ccc2c(c1)OC(c1ccc(OCCN3CCCCC3)cc1)C1=C2CCC2(C1)SCCCS2 (stereo not drawn) [Compound 12] | – | – | > 10 µM | 0.686 µM | > 10 µM | 0.0351 µM |
| Oc1ccc2c(c1)OC(c1ccc(OCCN3CCCC3)cc1)C1=C2CCC2(C1)SCCS2 (stereo not drawn) [Compound 13] | – | – | > 10 µM | > 10 µM | > 10 µM | 1.05 µM |
| CCN(CC)CCOc1ccc(C2Oc3cc(O)ccc3C3=C2CC2(CC3)SCCS2)cc1 (stereo not drawn) [Compound 14] | – | – | > 10 µM | 4.97 µM | > 10 µM | 0.0659 µM |
| O=S1(=O)CCCS(=O)(=O)C12CCC1=C(C2)C(c2ccc(OCCN3CCCCC3)cc2)Oc2cc(O)ccc21 (stereo not drawn) [Compound 17] | – | – | > 10 µM | > 10 µM | > 10 µM | > 10 µM |
